# Measurements taken from patent publication US8192962B2, “Processes for detecting toxic substances” (Daikin Industries, Ltd., priority 2001, dated 2012).
# Tested on: Energy system protein genes
# Assay: DNA chip mRNA expression in yeast, energy system protein genes (Table 4)
# Assay type: cell-based, Saccharomyces cerevisiae S288C
# Method in brief: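 Value is the scanned fluorescence intensity ratio of exposed versus chemical-free cells. Log-phase S288C yeast in YPD at 25° C. received one toxic substance for two hours, dosed to slow growth without killing; Cy3/Cy5-labeled cDNA from oligo-dT-purified mRNA was hybridized to a whole-genome chip at 65° C.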
smiles,measurement,setting,value
"S=C([S-])NCCNC(=S)[S-].[Zn+2] [(11), zinc N,N′-ethylenebis(dithiocarbamate)]",The level of expressed mRNA in the presence of chemical substance/The level of expressed mRNA in the absence of chemical substance,yeast gene YAL060W,2.4
same,The level of expressed mRNA in the presence of chemical substance/The level of expressed mRNA in the absence of chemical substance,"yeast gene YBL058W, cells incubated two hours with the chemical substance",1.3
same,The level of expressed mRNA in the presence of chemical substance/The level of expressed mRNA in the absence of chemical substance,"yeast gene YBL099W, cells incubated two hours with the chemical substance",2.1
same,The level of expressed mRNA in the presence of chemical substance/The level of expressed mRNA in the absence of chemical substance,"yeast gene YBR001C, cells incubated two hours with the chemical substance",1.0
same,The level of expressed mRNA in the presence of chemical substance/The level of expressed mRNA in the absence of chemical substance,"yeast gene YBR185C, cells incubated two hours with the chemical substance",1.2
same,The level of expressed mRNA in the presence of chemical substance/The level of expressed mRNA in the absence of chemical substance,"yeast gene YBR221C, cells incubated two hours with the chemical substance",1.2
same,The level of expressed mRNA in the presence of chemical substance/The level of expressed mRNA in the absence of chemical substance,yeast gene YCL040W,8.2
same,The level of expressed mRNA in the presence of chemical substance/The level of expressed mRNA in the absence of chemical substance,yeast gene YCR012W,1.8
same,The level of expressed mRNA in the presence of chemical substance/The level of expressed mRNA in the absence of chemical substance,"yeast gene YCR046C, cells incubated two hours with the chemical substance",1.5
same,The level of expressed mRNA in the presence of chemical substance/The level of expressed mRNA in the absence of chemical substance,"yeast gene YCR105W, cells incubated two hours with the chemical substance",2.3
same,The level of expressed mRNA in the presence of chemical substance/The level of expressed mRNA in the absence of chemical substance,yeast gene YDL021W,4.7
same,The level of expressed mRNA in the presence of chemical substance/The level of expressed mRNA in the absence of chemical substance,"yeast gene YDL067C, cells incubated two hours with the chemical substance",1.4
same,The level of expressed mRNA in the presence of chemical substance/The level of expressed mRNA in the absence of chemical substance,"yeast gene YDL078C, cells incubated two hours with the chemical substance",1.7
same,The level of expressed mRNA in the presence of chemical substance/The level of expressed mRNA in the absence of chemical substance,"yeast gene YDL107W, cells incubated two hours with the chemical substance",1.0
same,The level of expressed mRNA in the presence of chemical substance/The level of expressed mRNA in the absence of chemical substance,yeast gene YDL174C,0.9
same,The level of expressed mRNA in the presence of chemical substance/The level of expressed mRNA in the absence of chemical substance,"yeast gene YDL181W, cells incubated two hours with the chemical substance",0.8
same,The level of expressed mRNA in the presence of chemical substance/The level of expressed mRNA in the absence of chemical substance,yeast gene YDR001C,0.7
same,The level of expressed mRNA in the presence of chemical substance/The level of expressed mRNA in the absence of chemical substance,"yeast gene YDR050C, cells incubated two hours with the chemical substance",2.0
same,The level of expressed mRNA in the presence of chemical substance/The level of expressed mRNA in the absence of chemical substance,"yeast gene YDR079W, cells incubated two hours with the chemical substance",1.3
same,The level of expressed mRNA in the presence of chemical substance/The level of expressed mRNA in the absence of chemical substance,"yeast gene YDR178W, cells incubated two hours with the chemical substance",2.0
same,The level of expressed mRNA in the presence of chemical substance/The level of expressed mRNA in the absence of chemical substance,yeast gene YDR231C,1.3
same,The level of expressed mRNA in the presence of chemical substance/The level of expressed mRNA in the absence of chemical substance,"yeast gene YDR298C, cells incubated two hours with the chemical substance",1.2
same,The level of expressed mRNA in the presence of chemical substance/The level of expressed mRNA in the absence of chemical substance,"yeast gene YDR377W, cells incubated two hours with the chemical substance",1.4
same,The level of expressed mRNA in the presence of chemical substance/The level of expressed mRNA in the absence of chemical substance,"yeast gene YDR529C, cells incubated two hours with the chemical substance",0.8
same,The level of expressed mRNA in the presence of chemical substance/The level of expressed mRNA in the absence of chemical substance,"yeast gene YEL024W, cells incubated two hours with the chemical substance",0.9
same,The level of expressed mRNA in the presence of chemical substance/The level of expressed mRNA in the absence of chemical substance,"yeast gene YEL039C, cells incubated two hours with the chemical substance",1.7
same,The level of expressed mRNA in the presence of chemical substance/The level of expressed mRNA in the absence of chemical substance,yeast gene YER178W,2.5
same,The level of expressed mRNA in the presence of chemical substance/The level of expressed mRNA in the absence of chemical substance,yeast gene YFL057C,27.7
same,The level of expressed mRNA in the presence of chemical substance/The level of expressed mRNA in the absence of chemical substance,yeast gene YFR053C,1.5
same,The level of expressed mRNA in the presence of chemical substance/The level of expressed mRNA in the absence of chemical substance,"yeast gene YGL018C, cells incubated two hours with the chemical substance",1.1
same,The level of expressed mRNA in the presence of chemical substance/The level of expressed mRNA in the absence of chemical substance,yeast gene YGL062W,0.7
same,The level of expressed mRNA in the presence of chemical substance/The level of expressed mRNA in the absence of chemical substance,"yeast gene YGL187C, cells incubated two hours with the chemical substance",0.7
same,The level of expressed mRNA in the presence of chemical substance/The level of expressed mRNA in the absence of chemical substance,"yeast gene YGL191W, cells incubated two hours with the chemical substance",1.6
same,The level of expressed mRNA in the presence of chemical substance/The level of expressed mRNA in the absence of chemical substance,"yeast gene YGL205W, cells incubated two hours with the chemical substance",0.4
same,The level of expressed mRNA in the presence of chemical substance/The level of expressed mRNA in the absence of chemical substance,"yeast gene YGL256W, cells incubated two hours with the chemical substance",1.0
same,The level of expressed mRNA in the presence of chemical substance/The level of expressed mRNA in the absence of chemical substance,yeast gene YGR008C,2.6
same,The level of expressed mRNA in the presence of chemical substance/The level of expressed mRNA in the absence of chemical substance,yeast gene YGR043C,3.6
same,The level of expressed mRNA in the presence of chemical substance/The level of expressed mRNA in the absence of chemical substance,"yeast gene YGR062C, cells incubated two hours with the chemical substance, 25° C., YPD medium",1.6
same,The level of expressed mRNA in the presence of chemical substance/The level of expressed mRNA in the absence of chemical substance,"yeast gene YGR087C, cells incubated two hours with the chemical substance",0.8
same,The level of expressed mRNA in the presence of chemical substance/The level of expressed mRNA in the absence of chemical substance,"yeast gene YGR174C, cells incubated two hours with the chemical substance",1.3
same,The level of expressed mRNA in the presence of chemical substance/The level of expressed mRNA in the absence of chemical substance,yeast gene YGR192C,2.3
same,The level of expressed mRNA in the presence of chemical substance/The level of expressed mRNA in the absence of chemical substance,yeast gene YGR244C,1.8
same,The level of expressed mRNA in the presence of chemical substance/The level of expressed mRNA in the absence of chemical substance,yeast gene YGR254W,1.3
same,The level of expressed mRNA in the presence of chemical substance/The level of expressed mRNA in the absence of chemical substance,yeast gene YGR256W,2.7
same,The level of expressed mRNA in the presence of chemical substance/The level of expressed mRNA in the absence of chemical substance,yeast gene YHL008C,1.4
same,The level of expressed mRNA in the presence of chemical substance/The level of expressed mRNA in the absence of chemical substance,yeast gene YHR174W,1.4
same,The level of expressed mRNA in the presence of chemical substance/The level of expressed mRNA in the absence of chemical substance,yeast gene YHR179W,2.0
same,The level of expressed mRNA in the presence of chemical substance/The level of expressed mRNA in the absence of chemical substance,yeast gene YIL045W,1.2
same,The level of expressed mRNA in the presence of chemical substance/The level of expressed mRNA in the absence of chemical substance,yeast gene YIL160C,2.4
same,The level of expressed mRNA in the presence of chemical substance/The level of expressed mRNA in the absence of chemical substance,"yeast gene YIR031C, cells incubated two hours with the chemical substance",1.2
same,The level of expressed mRNA in the presence of chemical substance/The level of expressed mRNA in the absence of chemical substance,yeast gene YJL052W,4.3
same,The level of expressed mRNA in the presence of chemical substance/The level of expressed mRNA in the absence of chemical substance,"yeast gene YJL121C, cells incubated two hours with the chemical substance",1.1
